Test results from patent US10907212B2, “Inhibitors of cell adhesion” (Regents of the University of Minnesota, priority 2016, dated 2021).
“Also recorded” adds a separate entry of the source. Where no end group is shown, it is not given here.

Tests used:
[1] = test system: nectin 4 protein on NIH:OVCAR-5 cells; test: Effect of peptides on anti-Nectin-4 antibody binding to cells as determined by flow cytometry; assay type: cell-based, human; conditions: for IgG MFI: IgG control primary antibody; for nectin-4 antibody binding compared to untreated control cells (in words): flow cytometry; for Flow binding: summary table, Nectin-4 antibody binding relative to control = 100
Protocol: Confluent monolayers of cells were detached from 75 cm^2 tissue culture flasks using Accutase cell dissociation buffer (Innovative Cell Technologies, San Diego, Calif.), washed, and labeled with mouse IgG or mAbs against Nectin-4 or Nectin-1 (2.5 μg/10^6 cells) in Flow Buffer [phosphate buffered saline (PBS) containing 2.5% newborn calf serum and 0.02% sodium azide] for 30 min at 4° C.. Cells were washed and incubated with goat anti-mouse IgG F(ab′)2 (Jackson ImmunoResearch, West Grove, Pa.), then washed again and incubated with streptavidin-allophycocyanin conjugate (Jackson ImmunoResearch, West Grove, Pa.) for 30 min each. Cells were washed and fixed in Flow Buffer containing 1% formaldehyde and analyzed in the University of Minnesota Flow Cytometry Resource with a BD Accuri™ C6 flow cytometer (BD Biosciences, San Jose, Calif.) using the Accuri™ software.
Briefly, NIH:OVCAR-5 cells that natively express a moderate amount of nectin 4 protein were incubated for 30 minutes in 150 μg/mL of soluble peptide in DMSO. After incubation, the cells were washed, and then triple antibody stained using mouse anti-nectin 4 (or IgG control) primary antibody, biotinylated goat anti-mouse secondary antibody, and streptavidin APC tertiary antibody. Finally, utilizing the University of Minnesota flow core's Accuri C6 flow cytometer, the relative antibody binding affinity for control and peptide-treated samples was quantitated and compared. Data was collected for each of the 57 peptides generated.

[2] = test system: ovarian cancer cell aggregation and spheroid formation; test: Spheroid assay for peptides (visual scale +1 to +5); assay type: cell-based, human; conditions: for Spheroid-24: 24 hrs, Control = 2; for Spheroid-24 / Spheroid-48: visual scale of +1 to +5; for Spheroid-48: 48 hrs, Control = 4
Protocol: Spheroids were formed from the NIH:OVCAR5 cell lines described above using the liquid overlay method. One milliliter of a single cell suspension was seeded at a concentration of 50,000 cells/ml in OptiMEM® media, into 24-well tissue culture plates coated with 0.5% Seakem agarose (in complete RPMI-1640). Plates were incubated at 37° C. in a humidified incubator with 5% CO2. At various time points up to 5 days, the plates were removed from the incubator and the spheroids were photographed with a Nikon CoolPix digital camera mounted on an Olympus CK2 inverted microscope with a 4× objective. The size of the spheroids was determined using the measure tool in Adobe Photoshop. The largest spheroids were quantified (20-90 spheroids/well), in a minimum of 8 wells, for a total of >300 spheroids per cell type.
The clinical relevance is that by blocking the formation of spheroids, the cells will be more sensitive to chemotherapy (which targets the single cells that proliferate more rapidly than spheroids).
The spheroid assay for peptides 1-30 were scored using a visual scale of +1 to +5. The controls were scored at +2 (24 hrs) and +4 (48 hrs). […] It may be harder to visually assess the size at 24 hours, since the spheroids are relatively small, but and perhaps some of the peptides are affecting cell division, and that is why the spheroids are smaller than the controls at 48 hours, but not 24 hrs (this can be easily assayed with an MTT assay).

[3] = Run Four, 150 μg/mL peptide, 30 minutes, Control 4 = 9,631.58
[4] = Run Four, Control 4 = 9.387504873
[5] = Run Four, antibody binding relative to Control 4 = 100
[6] = Run One, 150 μg/mL peptide, 30 minutes, Control 1 = 15,015
[7] = Run One, 150 μg/mL peptide, 30 minutes, Control 1 = 1,670
[8] = Run One, antibody binding relative to Control 1 = 100.00
[9] = Run Three, 150 μg/mL peptide, 30 minutes, Control 3 = 13,070.20
[10] = Run Three, antibody binding relative to Control 3 = 100.00

Substance | N4 MFI [1, 6] | IgG MFI [1, 7] | N4 MFI/IgG MFI ([1]; Run One, Control 1 = 8.99) | nectin-4 antibody binding, percent of control [1, 8] | nectin-4 antibody binding compared to untreated control cells (in words) ([1]; 150 μg/mL peptide) | Flow binding [1] | Spheroid-24 [2] | Spheroid-48 [2] | other results
ACIVNYHMDRFKES-NH2 (listed as Homo sapiens) [Peptide 46] | – | – | – | – | – | – | – | – | N4 MFI [1, 3]: 10,569.90; N4 MFI/IgG MFI [1, 4]: 6.623; IgG MFI ([1]; Run Four, Control 4 = 1,026): 1596; nectin-4 antibody binding, percent of control [1, 5]: 104.3
AEASVRGLEDQNLW-NH2 (listed as Homo sapiens) [Peptide 19] | 7,278 | 2,254 | 3.23 | 37.65 | reduction in nectin-4 antibody binding; also recorded: reduced antibody binding | 38% | 1 | 2 | spheroid size (in words) [2]: reduced spheroid size
AWARVDAGEGAQEL-NH2 (listed as Homo sapiens) [Peptide 4] | 8,687 | 2,199 | 3.95 | 48.62 | reduction in nectin-4 antibody binding | 49% | 1 | 2 | –
CKADANPPATEYHWT-NH2 (listed as Homo sapiens) [Peptide 50] | – | – | – | – | – | – | – | – | N4 MFI [1, 3]: 11,341.38; N4 MFI/IgG MFI [1, 4]: 4.306; IgG MFI ([1]; Run Four, Control 4 = 1,026): 2634; nectin-4 antibody binding, percent of control [1, 5]: 101.2
CLSEGQPPPSYNWT-NH2 (listed as Homo sapiens) [Peptide 21] | – | – | – | – | – | – | 1 | 2 | N4 MFI ([1]; Run Two, 150 μg/mL peptide, 30 minutes, Control 2 = 49,491): 34,351; N4 MFI/IgG MFI ([1]; Run Two, Control 2 = 9.46): 8.61; IgG MFI ([1]; Run Two, Control 2 = 5,233): 3,989; nectin-4 antibody binding, percent of control ([1]; Run Two, antibody binding relative to Control 2 = 100.00): 68.60
EAQNRTLFFKGPINY-NH2 (listed as Homo sapiens) [Peptide 52] | – | – | – | – | increased nectin-4 antibody | 138% | 1 | 2 | N4 MFI ([1]; Run Five, 150 μg/mL peptide, 30 minutes, Control 5 = 17,768.90): 20,692.13; N4 MFI/IgG MFI ([1]; Run Five, Control 5 = 2.142155332): 2.717; IgG MFI ([1]; Run Five, Control 5 = 8,294.87): 7,617.02; nectin-4 antibody binding, percent of control ([1]; Run Five, antibody binding relative to Control 5 = 100): 138
ECRVSTFPAGSFQA-NH2 (listed as Homo sapiens) [Peptide 9] | 8,578 | 1,886 | 4.55 | 50.15 | reduction in nectin-4 antibody binding | 50% | – | 3 | –
EGSPAPSVTWDTEV-NH2 (listed as Homo sapiens) [Peptide 13] | 15,623 | 3,720 | 4.20 | 89.19 | – | – | 1 | 2 | –
ELALLHSKYGLHVS-NH2 (listed as Homo sapiens) [Peptide 5] | 11,668 | 1,711 | 6.82 | 74.61 | – | – | – | 3 | –
ESLTLNVQYEPE-NH2 (listed as Homo sapiens) [Peptide 47] | – | – | – | – | – | – | 1 | 2 | N4 MFI [1, 3]: 11,949.18; N4 MFI/IgG MFI [1, 4]: 6.679; IgG MFI ([1]; Run Four, Control 4 = 1,026): 1789; nectin-4 antibody binding, percent of control [1, 5]: 118.1
ESQLNLTVMAKPTN-NH2 (listed as Homo sapiens) [Peptide 39] | – | – | – | – | reduction in nectin-4 antibody binding | 57% | – | – | N4 MFI [1, 9]: 8,719.33; N4 MFI/IgG MFI ([1]; Run Three, Control 3 = 9.83): 4.24; IgG MFI ([1]; Run Three, Control 3 = 1330): 2056; nectin-4 antibody binding, percent of control [1, 10]: 56.76
GFIGTDVVLHCSFA-NH2 (listed as Homo sapiens) [Peptide 31] | – | – | – | – | increased nectin-4 antibody binding | 117% | – | – | N4 MFI [1, 9]: 15,498.21; N4 MFI/IgG MFI ([1]; Run Three, Control 3 = 9.83): 8.83; IgG MFI ([1]; Run Three, Control 3 = 1330): 1756; nectin-4 antibody binding, percent of control [1, 10]: 117.05
